Assay results taken from patent US20150119329A1, “MODULATION OF ANGIOTENSIN II RECEPTORS FOR THE PREVENTION AND TREATMENT OF MALARIA CEREBRAL” (NEW YORK UNIVERSITY, priority 2012, published 2015).
Peptide text beside a SMILES is read from it.

How the values were obtained:
[1] = system: human brain microvascular endothelial cells (HBMECs); assay: iRBC-induced disruption of interendothelial junctions and detachment of HBMEC monolayer (nuclei count, PrestoBlue viability); format: cell-based; details: P. falciparum iRBCs over HBMECs, 18 hours; compound 10^−5 M
Description: Cell viability assay. To assess the viability of the adherent HBMECs PrestoBlue Cell Viability Reagent (Invitrogen) was utilized. […] After 18 hours, the plates were washed twice with PBS, and PrestoBlue Cell Viability Reagent diluted 1:10 with medium, was added. Samples were then incubated for 3 hours at 37° C. PrestoBlue is reduced from blue resazurin to red resorufin in the presence of viable cells. The absorbance (595 nm) was read with a Victor X3 plate reader.

P. berghei ANKA [2] = assay: Brain histopathology (hemorrhages, blood brain barrier integrity) in cerebral malaria mouse model; format: in vivo; details: Losartan 10 mg/Kg/d, CGP-42112A 500 ng/min/kg
Description: Cerebral Malaria Experimental Mouse Model. Female C57BL/6J mice were obtained from Taconic Farms Inc. All mice were maintained under barrier conditions. Water and normal laboratory diet were available ad libitum. The infection was performed by inoculating i.p. 10^6 infected erythrocytes with P. berghei ANKA. All procedures involving animals conformed to the Guide for the Care and Use of Laboratory Animals published by US National Institutes of Health (NIH Publication No. 85-23, revised 1985) and were performed with the approval of the Animal Care and Use Committee at the University of New York. Alzet osmotic minipumps (Model 1002; ALZA Scientific Products, Mountain View, Calif., USA) were implanted into C57BL/6J mice at 4 months of age. Pumps were filled either with saline vehicle or solution of CGP-42112A (Sigma Chemical Co.) that delivered (subcutaneously) at 500 ng/min/kg for the duration of the study. Pumps were placed into the subcutaneous space of subcutaneous bupivacaine anesthetized mice through a small incision on the animal back slightly posterior of the shoulder blades that was closed with Reflex 7 mm wound closure system (ALZA Scientific Products, Mountain View, Calif., USA).

P. berghei ANKA [3] = assay: Cerebral malaria experimental mouse model (development of cerebral malaria, mortality); format: in vivo; details: C57BL/6J mice infected with P. berghei ANKA; Losartan 10 mg/Kg/d in drinking water; compared with vehicle treatment

SMILES	damage to HBMECs caused by rupture and release of iRBCs, compared to control [1] [%]	quantification of hemorrhages in brain histological slices (P. berghei ANKA [2]; brains of infected mice (FIG. 4))	structure of the brain vessels and integrity of the blood brain barrier (BBB) (P. berghei ANKA [2]; brains of infected mice, Hematoxillin/Eosin, versus untreated groups)	reduction of mortality (P. berghei ANKA [3])
CC[C@H](C)[C@H](NC(=O)[C@@H]1CCCN1C(=O)[C@H](Cc1c[nH]cn1)NC(=O)[C@H](CCCCNC(=O)[C@H](CCCNC(=N)N)NC(=O)OCc1ccccc1)NC(=O)[C@H](Cc1ccc(O)cc1)NC(=O)c1cccnc1)C(=O)O [CGP-42112A, (25,35)-2-[[(25)-1-[(25)-2-[[(25)-6-[[(25)-5-(diaminomethylideneamino)-2-(phenylmethoxy-carbonylamino)pentanoyl]amino]-2-[[(25)-3-(4-hydroxyphenyl)-2-(pyridine-3-carbonylamino)propanoyl]amino]hexanoyl]amino]-3-(1H-imidazol-5-yl)propanoyl]pyrrolidine-2-carbonyl]amino]-3-methylpentanoic acid] (HELM PEPTIDE1{[O=C(c1cccnc1)[*:2]].Y.K.H.P.I}|PEPTIDE2{[O=C(OCc1ccccc1)[*:2]].R}$PEPTIDE1,PEPTIDE2,3:R3-2:R2$$$V2.0)	20	protective effect	better maintained	–
CCCCc1nc(Cl)c(CO)n1Cc1ccc(-c2ccccc2-c2nnn[nH]2)cc1 [Losartan, (2-butyl-4-chloro-1-{[2′-(1H-tetrazol-5-yl)biphenyl-4-yl]methyl]-1H-imidazol-5-yl)methanol]	–	–	–	4-5 times
